Read-outs that look alike come from different tables or passages of the source.
Legend:
rabbit = test: Draize method, ocular irritation; assay type: in vivo; conditions: for Draize score Ocular irritation: Table 1, Conc. of test substance 0.5%; for Actual evaluation: Table 3, Draize ocular irritation score used for the regression; for Found value: Table 4, measurements according to the Draize method
From the text: The assay and evaluation as to whether or not a foreign substance gives harmful irritation to a living body which induces vital reactions, for example, inflammation, hemolysis, opacification, and swelling, are essential in the product development in the technical fields of cosmetics, medicines, and other medical materials and oleo chemicals where a particular substance is directly applied to the living body At the present time, experimental animals are mainly used for these assay and evaluation. In the tests, particularly in irritation tests, use is made of a skin irritation test (primary irritation and accumulating irritation), an ocular irritation test, a patch test, and a mucous membrane irritation test (tunica mucosa oris and urogenital mucosa membrane). For example, in the ocular irritation test, the Draize method, which uses a rabbit, is generally adopted. In this method, the ocular irritation by a test substance is assayed particularly through (1) the determination of the degree of clouding of the cornea, (2) the evaluation of the incidence of congestion or edema of the conjunctiva, and (3) the evaluation of the incidence of congestion or swelling of the iris.
The same test substance as that used above was subjected to a test according to the Draize method.

[1] = Estimate of Draize score by regression of HDR values (Example 3); conditions: Draize score estimated by 17.61 + 0.624 1% HDR + 0.481 0.016% HDR
From the text: The results thus obtained were subjected to regression using the following associative equation to obtain the above-described correlation coefficient. 17.61 + 0.624 1% HDR + 0.481 0.016% HDR [formula] Consequently, a very good correspondence was observed even with evaluation by a plurality of concentrations.

[2] = Estimate of Draize score by regression of RBC and HDR values (Example 4); conditions: estimated value based on the Draize method using the associative equation with RBC, 2% HDR, 0.25% HDR, 0.063% HDR
From the text: • Method 1: The procedure as described in Example 1 was repeated. • Method 2: The procedure as described in Example 2 was repeated.
The results obtained from the two methods were subjected to regression using the associative equation below: […]
Here, the calculated values are estimated values based on the Draize method using the above-described associative equation, and the found values are measurements according to the Draize method.

[3] = Table 1, Conc. of test substance 0.5%

| SMILES | Draize score Primary ocular irritation (in vivo) | Draize score Primary skin irritation (in vivo) | Draize score Ocular irritation (rabbit) | Actual evaluation (rabbit) | Found value (rabbit) | Estimated value [1] | Calculated value [2] | Draize score Primary ocular irritation [3] |
| --- | --- | --- | --- | --- | --- | --- | --- | --- |
| CCCCCCCCCCCCCCCC[n+]1ccccc1 [Cetyl pyridinium chloride] | 4.0 | 4.0 | 70 | 70.000 | 35 | – | – | – |
| CCCCCCCCOc1ccccc1 [Octyl phenyl ether] | – | – | 8.7 | 3.700 | 8.7 | 17.610 | 6.9685 | 0.2 |
| CCCCCCCCCCCCOS(=O)(=O)[O-].[Na+] [SDS, sodium dodecylsulfate] | – | – | 35.1 | 35.100 | 70 | 43.331 | 70.5078 | 6.9 |

From patent EP0600087A1, “METHOD AND KIT OF IN VITRO IRRITATION TEST” (priority 1991, dated 1993)
